Results taken from patent US10849955B2, “Methods of treating pancreatic cancer using GPCR antagonists” (City of Hope, priority 2016, dated 2020).

What was measured:
Type in all cases: cell-based, human
EGFR = EGFR phosphorylation in PANC-1 cells, Western blot kinetic study; conditions: 10 nM agonist(s), pEGFR over total EGFR
Experimental: To prepare protein extracts, cells were pelleted by centrifugation and washed twice in PBS. The pellet was resuspended in lysis buffer (50 mM Tris, pH 8.0, 150 mM sodium chloride, 1% NP-40, supplemented Protease and Phosphatase Inhibitor Mini Tablets, Pierce) and incubated on a rotator for 30 min at 4° C. Subsequently, the cells were pelleted by centrifugation at 10,000 rpm for 20 min at 4° C. The protein lysate (supernatant) was used immediately or stored at −80° C. Membrane proteins were isolated using the Mem-Per Plus Membrane protein isolation kit (Thermo Scientific) per the manufacturer′ instructions. Briefly, adherent cells were scraped and centrifuged for 5 min at 300×g. The cell pellet was washed 2 times using Cell Wash solution and centrifuged for 5 min at 300×g. The cell pellet was permeabilized using Permeabilization Buffer and incubated at 4° C. for 10 mins on a rotator. […] Proteins were detected with Pierce ECL detection reagents (Pierce). […]
Cells were treated with 10 nM Dermorphin [Y(D-ALA)FGYPKC; Genscript], 10 nM (1R,1′S,3′R/1R,1′R,3′S)-L-054,264 (Tocris) individually and in combination for the indicated times. […] Blots were imaged on film and quantified using the Image Lab software (Biorad). ERK1/2 and EGFR phosphorylation at each time point was quantified and normalized by calculating the ratio of pERK1/2 over total ERK1/2 and pEGFR over total EGFR in each lane. […]

pERK1/2 = pERK1/2 localization in PANC-1 cells, confocal imaging; conditions: 3 or 30 min, 10 nM dermorphin, 10 nM L-054,264, 100 ng/ml CXCL12
Experimental: For pERK1/2 activation studies, after 24 hours, normal pancreatic and/or PANC-1 cells were treated with 1) 10 nM dermorphin; 2) 10 nM L-054,264; 3) 10 nM dermorphin plus 10 nM L-054,264; 4) 100 ng/ml CXCL12; and 5) 10 nM dermorphin plus 100 ng/ml CXCL12 for either 3 min or 30 min as indicated. PANC-1 NS, PANC-1/β arreatin2, PANC-1/SSTR2si and PANC-1/MORsi cells were treated with 10 nM dermorphin with 10 nM L-054,264 for 3 min. Following treatment, cells were washed and fixed with 4% (w/v) paraformaldehyde and 0.2% (w/v) glutaraldehyde for 30 min and inactivated with 25 mM glycine for 10 min. Cells were then washed in PBS and subsequently permeabilized on ice using 0.5% tween-20 in PBS for 20 min similarly as before (Smith et al., 2004). Cells were washed with PBS and blocked with 5% BSA in PBS for 10 min. Cells were incubated for 1 h at 37° C. with 2 μg/mL of primary antibody (anti-pERK1/2). Subsequently, cells were washed 3 times with 0.5% tween-20 in PBS for 5 min each and incubated with 2 μg/mL of Alexa Fluor 647 labeled secondary antibody in PB for 45 min. Following incubation with secondary antibody, cells were washed 3 times with 0.5% tween-20 in PBS. Cells were covered with mounting media DAPI (Vector Labs), mounted on slides, and imaged on a Zeiss LSM700 confocal microscope.

[1] = system: N-cadherin, MMP-9, vimentin and E-cadherin; assay: EMT marker mRNA levels in PANC-1 cells, RT-PCR; conditions: 10 nM dermorphin, 100 ng/mL CXCL12
Experimental: RNA was isolated using the RNAeasy Plus Kit (Qiagen) according to the manufacturer's protocol. For the EMT markers assay, cells were first treated with appropriate agonists where indicated for 24 hours followed by cell lysis and RNA extraction. cDNA was synthesized from 2 μg RNA using Bioline cDNA synthesis kit according to the manufacturer's protocol. The synthesized cDNAs were used as templates for PCRs with primers as described below. RT-PCR was performed using 5×RT Mastermix (Applied Biosystems). The reactions were analyzed on the CFX96 Real time instrument (Biorad). Themocycler conditions were 95° C. for 10 min for 1 cycle, 95° C. for 15 sec and 60° C. for 1 min for 50 cycles. GAPDH was used as an internal control. For GPCR assays, COS-7 cells were used as negative and MCF-7 cells as positive controls. For EMT marker assays, fold change was calculated as a ratio of treated to untreated control.

For (1R,1′S,3′R/1R,1′R,3′S)-L-054,264, which EGFR phosphorylation (EGFR) is on record?
The EGFR phosphorylation was “induced modest EGFR phosphorylation”.

What does the source list for CXCL12: selective CXCR4 agonist?
pERK1/2 localization (pERK1/2): high levels of nuclear pERK1/2; mRNA levels of 4 markers (N-cadherin, E-cadherin, MMP-9, vimentin) [1]: did not have a significant effect
